From US11192849B2, “Compounds, compositions, and methods for modulating ferroptosis and treating excitotoxic disorders” (THE TRUSTEES OF COLUMBIA UNIVERSITY IN THE CITY OF NEW YORK, priority 2013, dated 2021)

Legend:
HT-1080 cells [1] = assay: LOC library screening and confirmation: suppression of erastin-induced death; assay type: cell-based; conditions: Homo sapiens, LOC library screening and confirmation studies, read-out: EC50, inhibition of erastin-induced ferroptosis
Description: The LOC library was screened over the course of several days. 384-well glass bottom assay plates (Corning) were seeded with 1,000 HT-1080 cells/well the day before the experiment. The day of the experiment, LOC mother plates were thawed at room temperature for 1 hour and spun at 1000 rpm for 1 minute prior to use. Using a BioMek liquid handing robot, 2 μL of compound solution from each LOC library mother plate was transferred to a 384 deep well “daughter” plate (Grenier) containing 148 μL of cell culture media. The cell culture media in each assay plate was then removed by flicking and, using a BioMek FX, replaced with 36 μL of growth media containing erastin (5 μM final). To this was added 4 μL of the drug solution from the daughter plate, for a final screening concentration of 5.3 μg/mL for each LOC library compound. 4 wells containing DMSO alone (no erastin), 4 wells containing 100 μM DFO alone (no erastin), 4 wells containing erastin plus DMSO, and 4 wells containing erastin plus 100 μM DFO (positive control) were included as controls on each plate. Each drug daughter plate was aliquoted separately to duplicate assay plates. Plates were then spun briefly (1000 rpm, 5 seconds) and returned to the 37° C. tissue culture incubator. 24 hours later, cell viability was assessed by Alamar Blue as described above.
Candidate hits from the LOC library screen were identified. […]

[2] = 2,2-Diphenyl-1-picrylhydrazyl (DPPH) cell-free antioxidant assay; assay type: biochemical; conditions: test compound 0.05 mM, 30 minutes
Description: The stable radical DPPH (Blois, 1958) was dissolved in methanol to a final working concentration of 0.05 mM. This was prepared as follows. First, a 100× stock concentration (5 mM) was prepared by dissolving 3.9 mg DPPH in 2 mL methanol. Then, for 25 mL of 0.05 mM final working solution, 250 μL of the 5 mM solution was added to 24.75 mL of methanol. 1 mL of DPPH solution was added to a small volume (<5 μL) each test compound dissolved in DMSO. The final concentration of each test compound was 0.05 mM. Samples were inverted several times and allowed to incubate at room temperature for 30 minutes. Samples were then aliquoted to white 96-well solid-bottom dishes (Corning) and absorbance at 517 nm was recorded using a TECAN M200 plate reader. All values were normalized to background (methanol only). The experiment was repeated three times and the data was averaged.
In parallel with the above cell-based assay, a 2,2-diphenyl-1-picrylhydrazyl (DPPH) assay was used to examine the ability of each analog to scavenge free radicals in a cell-free in vitro solution—a test of intrinsic antioxidant capacity. […] Redox active analogs scavenged the DPPH radical by 60-90% within 30 minutes (FIG. 18a).

HT-1080 cells [3] = assay: Acridine orange relocalization (lysosomal membrane permeabilization) in HT-1080 cells; assay type: cell-based, human; conditions: acridine orange re-localization
Description: 200,000 HT-1080 cells were seeded into 6-well dishes (Corning). The next day, cells were incubated with 25 ng/mL of AO for 15 minutes, then medium was removed and cells were incubated in growth medium for 15 minutes. […] Relocalization of AO from lysosomes (discrete red puncta) to the cytosol (diffuse green color) was determined using an EVOS fl digital inverted fluorescent microscope (Advanced Microscopy Group) equipped with GFP (ex/em 470/525) and RFP (ex/em 531/593) light cubes.

[4] = system: mice, CaOx-induced nephropathy; assay: Acute oxalate nephropathy model; assay type: in vivo, mouse; conditions: Ferrostatin-1 10 mg/kg i.p.
Description: Mice were divided into two groups. One group received vehicle injections and another group received Ferrostatin-1 (10 mg/kg i.p.). Then, 15 min later, both groups were given a single i.p. injection of 100 mg/kg sodium oxalate and 3% sodium oxalate in drinking water. Blood samples and kidneys were harvested after 24 h. Kidneys were kept at −80° C. for protein isolation and at −20° C. for RNA isolation. One part of the kidney was also kept in formalin to be embedded in paraffin for histological analysis. Kidney sections (2 μm) were stained with periodic acid-Schiff (PAS) reagent. Tubular injury was scored by assessing the percentage of necrotic tubules. Ly6B.2+ neutrophils were identified by immunostaining (clone 7/4; Serotec). Pizzolato stain was used to visualize CaOx crystals, and crystal deposit formation in the kidney was evaluated as described previously (Mulay et al., 2013), using the following point values: 0, no deposits; 1, crystals in papillary tip; 2, crystals in cortical medullary junction; 3, crystals in cortex. […] Serum creatinine and blood urea nitrogen were measured using Creatinine FS kit and Urea FS kit (both from DiaSys Diagnostic Systems) according to the manufacturer's protocol. Neutrophil infiltrates were counted in 15 high-power fields (hpfs) per section. For real-time quantitative RT-PCR, total RNA was isolated from kidneys using a Qiagen RNA extraction kit following the manufacturer's instructions. After quantification, RNA quality was assessed using agarose gels. […] Real-time quantitative RT-PCR (TaqMan) was performed using SYBR-Green PCR master mix and analyzed with a Light Cycler 480 (Roche). […] The expression of KIM-1, IL-6, CXCL-2, and NF-κB p65 was analyzed using the following primers: Kim-1 forward, 5′-[…]-3′ (SEQ ID NO:17); Kim-1 reverse, 5′-[…]-3′ (SEQ ID NO:18); IL-6 forward, 5′-[…]-3′ (SEQ ID NO:19); IL-6 reverse, 5′-[…]-3′ (SEQ ID NO:20); CXCL-2 forward, 5′-[…]-3′ (SEQ ID NO:21); CXCL-2 reverse, 5′-[…]-3′ (SEQ ID NO:22); NF-κB p65 forward, 5′-[…]-3′ (SEQ ID NO:23); NF-κB p65 reverse, 5′-[…]-3′ (SEQ ID NO:24).

In the case of CCOC(=O)c1ccc(NC2CCCCC2)c(N)c1 [SRS8-28 (Fer-1), ethyl 3-amino-4-(cyclohexylamino)benzoate], the EC50 (HT-1080 cells [1]) is reported as 60 nM, the “intrinsic antioxidant capability in the DPPH assay” value [2] is reported as “readily oxidized the stable radical” and the “lysosomal membrane destruction in response to H2O2” value (HT-1080 cells [3]) is reported as “did not prevent”. The “neutrophil infiltration and expression of CXCL-2, IL-6, KIM-1, p65” value [4] was “statistically significantly reduced”, the “serum creatinine and urea” value [4] was “significantly reduced” and the tubular injury score [4] was “significantly reduced”.
